The text below walks through data of ChEMBL document CHEMBL1201862, “PubChem BioAssay data set” (2004).

The source made the active and inactive calls.

Assay [1] concerns the target T1, Bcl-2-related protein A1 (Mus musculus, UniProt Q07440).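 Also: confirmatory dose–response counterscreen on Bfl-1, used to check hits from a UBC13 polyubiquitin inhibitor campaign.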
T1 sequence (Q07440 whole entry): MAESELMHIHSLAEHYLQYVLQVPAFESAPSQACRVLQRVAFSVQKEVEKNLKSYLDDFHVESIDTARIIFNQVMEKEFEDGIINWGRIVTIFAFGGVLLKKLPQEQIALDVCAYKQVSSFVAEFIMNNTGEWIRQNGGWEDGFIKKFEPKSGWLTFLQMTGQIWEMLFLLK
The class given is functional.

The target in assay [2] is T2, Ubiquitin-conjugating enzyme E2 N (Homo sapiens, UniProt P61088).
T2 sequence (P61088 whole entry): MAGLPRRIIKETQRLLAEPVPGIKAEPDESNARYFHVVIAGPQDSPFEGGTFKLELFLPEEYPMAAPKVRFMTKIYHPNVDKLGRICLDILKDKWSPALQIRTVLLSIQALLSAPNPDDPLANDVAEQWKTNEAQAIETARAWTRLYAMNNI
The class given is functional.

For assay [3], the target named is T2, Ubiquitin-conjugating enzyme E2 N. The class given is functional. This is another data set of the same source.
The test system of assay [4] is HEK293. The assay is described as follows: optical interference in Abeta FP readout, dose response, artefact control for IDE activator project, biochemical, fluorescence polarization (AID 588442). The class given is functional, cell-based. As to conditions: Homo sapiens. A general note: Polarisation of emitted light reports the rotation of a fluorescent probe.
The target of assay [5] is T3, RNA-binding protein pos-1 (Caenorhabditis elegans, UniProt G5EF15).
T3 sequence (G5EF15 whole entry): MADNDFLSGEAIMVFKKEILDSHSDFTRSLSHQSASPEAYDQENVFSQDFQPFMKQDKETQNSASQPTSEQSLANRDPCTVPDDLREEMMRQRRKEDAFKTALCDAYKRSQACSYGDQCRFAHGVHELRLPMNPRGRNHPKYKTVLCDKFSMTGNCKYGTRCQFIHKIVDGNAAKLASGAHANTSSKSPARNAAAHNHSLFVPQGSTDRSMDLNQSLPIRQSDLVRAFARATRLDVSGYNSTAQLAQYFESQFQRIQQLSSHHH
The assay is described as follows: inhibitors of POS-1/mex-3 RNA binding, dose response, biochemical, fluorescence polarization (AID 1964).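 Also: purified POS-1 fused to maltose binding protein made in E. coli; potency of compounds blocking POS-1 binding to fluorescent RNA.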

Assay [6] has as its target T4, Sentrin-specific protease 8 (Homo sapiens, UniProt Q96LD8).
T4 sequence (Q96LD8 whole entry): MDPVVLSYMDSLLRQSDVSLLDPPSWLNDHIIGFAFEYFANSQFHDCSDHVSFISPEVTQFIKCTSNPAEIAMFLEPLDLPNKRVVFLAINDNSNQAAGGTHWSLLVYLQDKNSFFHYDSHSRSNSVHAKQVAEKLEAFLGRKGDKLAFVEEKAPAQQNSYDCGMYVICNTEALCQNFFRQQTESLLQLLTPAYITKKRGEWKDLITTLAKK
The class given is functional.

Assay [7] concerns the target T5, Replicative DNA helicase DnaB (Mycobacterium tuberculosis, UniProt P9WMR3).
T5 sequence (P9WMR3 whole entry): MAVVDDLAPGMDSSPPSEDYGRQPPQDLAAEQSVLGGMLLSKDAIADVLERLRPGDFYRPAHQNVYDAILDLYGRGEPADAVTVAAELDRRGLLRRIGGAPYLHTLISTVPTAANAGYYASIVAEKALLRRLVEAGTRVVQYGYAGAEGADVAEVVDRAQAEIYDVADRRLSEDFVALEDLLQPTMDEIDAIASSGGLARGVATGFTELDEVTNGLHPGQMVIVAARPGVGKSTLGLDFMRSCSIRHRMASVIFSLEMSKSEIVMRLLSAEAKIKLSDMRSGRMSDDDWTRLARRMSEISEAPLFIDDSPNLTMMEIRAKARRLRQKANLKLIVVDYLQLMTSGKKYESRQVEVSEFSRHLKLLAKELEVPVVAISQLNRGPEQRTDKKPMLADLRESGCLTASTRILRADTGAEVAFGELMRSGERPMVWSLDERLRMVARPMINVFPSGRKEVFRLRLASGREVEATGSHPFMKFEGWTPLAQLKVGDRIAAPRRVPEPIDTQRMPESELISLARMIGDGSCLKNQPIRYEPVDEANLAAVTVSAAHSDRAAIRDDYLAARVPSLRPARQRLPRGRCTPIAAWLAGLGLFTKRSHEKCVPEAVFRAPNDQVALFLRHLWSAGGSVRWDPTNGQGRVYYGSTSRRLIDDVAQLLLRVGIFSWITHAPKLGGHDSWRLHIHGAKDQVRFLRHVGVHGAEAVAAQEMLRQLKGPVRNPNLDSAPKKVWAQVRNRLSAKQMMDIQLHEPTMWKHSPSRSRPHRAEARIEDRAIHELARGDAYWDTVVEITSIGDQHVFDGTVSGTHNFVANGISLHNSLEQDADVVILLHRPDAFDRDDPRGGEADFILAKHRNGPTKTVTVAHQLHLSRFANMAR
The assay is described as follows: DnaB intein splicing inhibitors, dose response, biochemical, cell-free fluorescence (AID 449749). The class given is functional.

In assay [8] the target is T6, Intestinal-type alkaline phosphatase (Homo sapiens, UniProt P09923). Description: human IAP activators, dose response, biochemical, luminescent, uHTS hits, set 2 (AID 488817).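 Also: potency of activators that raise enzyme activity.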 The class given is functional.
The target of assay [9] is Intestinal-type alkaline phosphatase (Mus musculus, UniProt P24822). Description: PubChem AID 488874. The class given is functional.
In assay [10] the target is T6, Intestinal-type alkaline phosphatase. Description: human intestinal alkaline phosphatase activators, dose response, biochemical, luminescence, uHTS hits (AID 463120). The class given is functional.
Assay [11] addresses Serine/threonine-protein kinase Nek2 (Homo sapiens, UniProt P51955). The class given is functional.
In assay [12] the target is Tyrosine-protein kinase ABL1 (Homo sapiens, UniProt P00519). The class given is functional.
The nature of assay [13]: off-target signal loss in HeLa-CEM21 co-culture – HeLa F-luc CTL cells, cherry-picked, counter-screen for HIV-1 Env fusion inhibitor project, dose response (AID 652040).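 Also: potency for signal decrease marking cytotoxic or nonspecific inhibition.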 The class given is functional, cell-based. For orientation: Counterscreens check selectivity or assay interference.
The nature of assay [14]: inhibitors of clade B AD8 Env fusion, dose response, cell-based, cherry-pick (AID 652062).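 Also: luciferase signal from cell-cell fusion driven by HIV-1 clade B AD8 Env; potency is for inhibitors of fusion seen as a drop in luminescence.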 The class given is functional.
Assay [15] is described as follows: cytotoxicity toward NIH3T3 fibroblasts, dose response, counter-screen, cell-based, ATP luminescence, mouse fibroblasts (AID 2010).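 Also: cells exposed to compound for about 90 hours before reading.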 The class given is functional.

T6 sequence (P09923 whole entry): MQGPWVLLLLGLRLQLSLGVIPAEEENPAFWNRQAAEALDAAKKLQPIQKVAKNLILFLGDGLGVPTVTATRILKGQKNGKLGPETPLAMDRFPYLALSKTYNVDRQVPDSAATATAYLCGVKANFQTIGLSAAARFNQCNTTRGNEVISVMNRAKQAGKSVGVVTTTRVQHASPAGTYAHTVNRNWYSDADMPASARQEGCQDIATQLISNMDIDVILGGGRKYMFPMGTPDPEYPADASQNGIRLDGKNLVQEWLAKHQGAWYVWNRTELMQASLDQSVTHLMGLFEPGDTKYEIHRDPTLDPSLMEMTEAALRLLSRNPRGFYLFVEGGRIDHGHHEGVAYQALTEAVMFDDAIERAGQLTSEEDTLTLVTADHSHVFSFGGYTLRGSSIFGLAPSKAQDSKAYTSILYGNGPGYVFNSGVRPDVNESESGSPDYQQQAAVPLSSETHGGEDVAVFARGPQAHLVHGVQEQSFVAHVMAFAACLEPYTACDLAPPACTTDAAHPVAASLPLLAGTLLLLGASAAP
Sequence of Serine/threonine-protein kinase Nek2 (P51955 whole entry): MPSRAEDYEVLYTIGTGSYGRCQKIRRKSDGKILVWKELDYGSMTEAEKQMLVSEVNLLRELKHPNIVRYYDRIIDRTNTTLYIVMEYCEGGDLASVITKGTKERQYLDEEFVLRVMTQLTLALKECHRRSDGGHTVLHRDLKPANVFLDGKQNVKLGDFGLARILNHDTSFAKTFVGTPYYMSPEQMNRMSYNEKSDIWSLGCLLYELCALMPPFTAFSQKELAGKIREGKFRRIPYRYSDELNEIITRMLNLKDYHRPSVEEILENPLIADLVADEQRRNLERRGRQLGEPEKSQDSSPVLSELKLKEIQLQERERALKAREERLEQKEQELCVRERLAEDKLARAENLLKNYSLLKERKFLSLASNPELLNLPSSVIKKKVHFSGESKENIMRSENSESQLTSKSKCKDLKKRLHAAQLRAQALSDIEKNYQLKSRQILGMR
Sequence of Intestinal-type alkaline phosphatase (Mus musculus, UniProt P24822) (P24822 whole entry): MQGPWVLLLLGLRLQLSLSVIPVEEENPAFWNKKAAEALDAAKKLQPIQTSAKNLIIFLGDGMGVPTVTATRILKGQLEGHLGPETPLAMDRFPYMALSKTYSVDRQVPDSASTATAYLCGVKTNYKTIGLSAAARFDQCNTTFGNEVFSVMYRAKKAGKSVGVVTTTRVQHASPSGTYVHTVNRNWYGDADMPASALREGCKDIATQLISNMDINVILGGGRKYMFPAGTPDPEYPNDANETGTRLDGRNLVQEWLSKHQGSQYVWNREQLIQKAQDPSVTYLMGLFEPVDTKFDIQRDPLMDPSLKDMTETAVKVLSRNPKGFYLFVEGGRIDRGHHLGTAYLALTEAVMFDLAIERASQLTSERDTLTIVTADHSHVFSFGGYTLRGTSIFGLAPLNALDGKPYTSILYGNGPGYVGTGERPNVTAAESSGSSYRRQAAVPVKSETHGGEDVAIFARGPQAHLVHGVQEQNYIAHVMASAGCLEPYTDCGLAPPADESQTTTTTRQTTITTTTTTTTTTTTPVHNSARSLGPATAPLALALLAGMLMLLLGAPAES
Sequence of Tyrosine-protein kinase ABL1 (P00519 whole entry, the tested form may be a part): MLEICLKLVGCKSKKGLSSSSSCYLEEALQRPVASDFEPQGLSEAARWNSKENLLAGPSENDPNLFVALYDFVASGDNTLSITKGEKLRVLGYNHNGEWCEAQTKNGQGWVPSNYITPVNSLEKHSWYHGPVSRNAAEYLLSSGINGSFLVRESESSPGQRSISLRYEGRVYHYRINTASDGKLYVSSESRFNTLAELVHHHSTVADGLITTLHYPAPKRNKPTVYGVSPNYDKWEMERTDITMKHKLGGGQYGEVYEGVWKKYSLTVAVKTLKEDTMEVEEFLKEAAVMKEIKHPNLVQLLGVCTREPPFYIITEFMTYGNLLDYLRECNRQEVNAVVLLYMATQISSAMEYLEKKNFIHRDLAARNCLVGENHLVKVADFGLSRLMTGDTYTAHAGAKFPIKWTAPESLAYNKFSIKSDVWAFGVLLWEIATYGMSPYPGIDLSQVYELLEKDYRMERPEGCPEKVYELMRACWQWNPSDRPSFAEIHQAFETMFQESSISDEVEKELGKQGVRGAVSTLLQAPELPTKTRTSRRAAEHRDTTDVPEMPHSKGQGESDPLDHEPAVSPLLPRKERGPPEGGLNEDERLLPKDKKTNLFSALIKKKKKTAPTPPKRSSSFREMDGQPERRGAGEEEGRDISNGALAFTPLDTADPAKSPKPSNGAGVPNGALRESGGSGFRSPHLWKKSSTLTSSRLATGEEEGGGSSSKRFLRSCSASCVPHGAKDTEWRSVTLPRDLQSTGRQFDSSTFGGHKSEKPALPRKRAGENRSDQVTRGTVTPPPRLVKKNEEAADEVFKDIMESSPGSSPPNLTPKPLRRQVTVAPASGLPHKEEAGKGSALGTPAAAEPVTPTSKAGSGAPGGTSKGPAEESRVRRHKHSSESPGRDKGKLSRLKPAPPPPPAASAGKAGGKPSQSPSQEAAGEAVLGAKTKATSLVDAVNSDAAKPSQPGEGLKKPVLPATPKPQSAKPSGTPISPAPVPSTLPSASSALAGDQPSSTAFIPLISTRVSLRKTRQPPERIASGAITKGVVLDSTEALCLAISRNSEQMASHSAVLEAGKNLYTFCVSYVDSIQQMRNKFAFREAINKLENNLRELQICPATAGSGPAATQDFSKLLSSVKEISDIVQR

For the compound `CNC[C@H](Cc1ccccc1)NC[C@@H](Cc1cccc2ccccc12)NCCc1ccc(C)cc1`, the results for the IC50 in assay [1], in assay [2] and in [3] were > 20 µM (inactive), 14.9 µM (active) and 11.5 µM (active), respectively. In addition, the EC50 in assay [4] is > 54.7 µM (inactive).

Turning to `Nc1nnc2c(n1)CCCC2`, the EC50 in [5] is 104 µM (active). The half-maximal inhibitory concentration (IC50) in assay [6] was 6.32 µM (active).

`O=C(Cc1ccccc1Cl)NC1(O)C(=O)c2ccccc2C1=O`: the AC50 in assay [7] is 7.96 µM (active).

For the compound `O=C(N/N=C/c1c(O)ccc2ccccc12)c1[nH]ncc1Br`, the results for the EC50 in assay [8] and in assay [10] were 11.7 µM (active) and 7.56 µM (active), respectively. Besides, the IC50 in assay [9] is 36.5 µM (active).

Take `Nc1c(-c2ccc(NC(=O)Nc3cccc(C(F)(F)F)c3)cc2)cnc2c(-c3ccc4c(c3)OCO4)cnn12`: the inhibitory constant (Ki) was 1.26 µM (active) in [11] and 0.2 µM (active) in assay [12].

Consider `CCN1C(=Cc2sc3ccccc3[n+]2C)C=Cc2cccc(C)c21`, for which the AC50 is 9.01 µM (active) in assay [13] and 1.05 µM (active) in [14]. In addition, the EC50 in assay [15] is 1.86 µM (active).

In general, IC50 refers to the concentration that gives 50% inhibition. In general, EC50 refers to the concentration needed to bring the measured effect to its halfway point. One may read the AC50 as the concentration giving half of the maximal activity seen. What is called Ki is a measure of affinity in units of concentration, obtained from inhibition or displacement.
